This note sets out measurements from US20230092872A1, “Method for promoting wound healing” (Phagelux Canada Inc., priority 2021, published 2023).

Structures are written as SMILES.

This data set can be described thus: Toxicological evaluation of leachable chemicals of BACTELIDE (margin of safety). The following applies: worst-case exposure: daily exposure, 100% bioavailability; leachables from BACTELIDE spray. As to the method:
ISO 10993-18:2020 and ISO/TS 21726:2019 leachable studies were performed for BACTELIDE. Solutions of BACTELIDE were collected for analysis via the spraying. The extracts were analyzed by gas chromatography-mass spectrometry (GC-MS) for volatile to semi-volatile compounds, by liquid chromatography-mass spectrometry (LC-MS) for semi-volatile to nonvolatile compounds, and by inductively coupled plasma mass spectrometry (ICP-MS) for elemental (metal and other) components. After analysis, results were reported based on the evaluation criteria listed in the results section below. […] 2-(N,N-Diethylamino)ethyldecyl maleate (CAS #184874-09-7) was the most abundant. Regarding LC-MS results, thirty-nine reportable compounds were identified in the test article extracts in positive ion mode. Glycerol dipentadecanoate (CAS #121957-69-5) was the most abundant. Thirty-six reportable compounds were identified in the test article extracts in negative ion mode. 3-[4-[[4-(2-Oxiranylmethoxy)phenyl]methyl]phenoxy]-1,2-propanediol didodecanoate (CAS #not given) was the most abundant. […]
The MOS values for all chemicals (or groups of similar chemicals) and elements identified across the analytical methods ranged from 3 to 1340000. A few chemicals had calculated “near-1” (i.e. ≥1 but <10) MOS values. […] Their margins of safety were calculated using the ICH M7 less than 1 year TTC of 0.33. […]

For the compound `OCC(O)COc1ccc(Cc2ccc(OCC3CO3)cc2)cc1` (stereo not shown) [3-[4-[[4-(2-Oxiranylmethoxy)phenyl]methyl]phenoxy]-1,2-propanediols], the “MOS value (margin of safety)” value is 3.
